Target: T1, CXCR4 (Homo sapiens, UniProt P61073)
T1 construct: endogenous in cells; host or cells: MT-4 cells
Experiment: CXCR4-binding inhibition activity (125I-SDF-1α binding to MT-4 cells)
Conditions: 0.1 μM test material, ligand 125I-SDF-1α, 2 hours under ice cold condition
Procedure: CXCR4-Binding Inhibition Activity
MT-4 cells (5×10^6/0.2 ml/well) were cultured on a 24-well microtiter plate. After the cells were incubated for 24 hours at 37° C. in a carbon dioxide gas incubator, a culture mediumwas replaced with a buffer solution (RPMI-1640 containing 0.1% BSA). Together with a ligand ^125I-SDF-1α (specific activity: 2,2000 Ci/mmol; DAIICHI PURE CHEMICALS CO. ,LTD. (Tokyo)), various concentrations of test materials were subjected to a binding reaction for 2 hours under ice cold condition.

T1 sequence (P61073 whole entry): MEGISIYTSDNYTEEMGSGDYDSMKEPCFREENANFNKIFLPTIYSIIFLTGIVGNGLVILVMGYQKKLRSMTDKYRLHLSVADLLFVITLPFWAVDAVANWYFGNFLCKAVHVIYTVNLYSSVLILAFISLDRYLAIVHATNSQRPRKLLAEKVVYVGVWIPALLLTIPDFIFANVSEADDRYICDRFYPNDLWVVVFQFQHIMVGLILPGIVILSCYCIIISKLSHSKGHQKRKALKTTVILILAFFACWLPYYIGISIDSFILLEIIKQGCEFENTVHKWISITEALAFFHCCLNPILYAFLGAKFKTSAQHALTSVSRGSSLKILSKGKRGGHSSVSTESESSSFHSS

SMILES | inhibition rate (binding-inhibition % at 0.1 μM) | inhibition at 0.1 µM (read-out: inhibition rate (binding-inhibition % at 0.1 μM))
O=C(N[C@@H](CCCNCc1ccccn1)C(=O)NCc1cccc2ccccc12)c1ccc(CNCc2ccccn2)cc1 [Compound No. 60, (S)-2-(4-(N-2-picolylaminomethyl)benzoylamino)-5-(N-2-picolylamino)valerate 1-naphthalenemethylamide] | 16.8% | –
O=C(N[C@@H](CCCNC1CCCc2cccnc21)C(=O)NCCc1c[nH]c2ccccc12)c1ccc(CNCc2ncc[nH]2)c2ccccc12 (stereo partly drawn) [Compound No. 19, (2S)-2-(4-((N-imidazol-2-ylmethyl)aminomethyl)naphthoylamino)-5-(5,6,7,8-tetrahydroquinolin-8-ylamino)2-(3-indolyl)ethylamide valerate] | 73.8% | –
O=C(N[C@@H](CCCNCc1ncc[nH]1)C(=O)NCc1cccc2ccccc12)c1ccc(CNCc2ncc[nH]2)c2ccccc12 [Compound No. 28, (S)-2-(4-((imidazol-2-ylmethyl)aminomethyl)naphthoylamino)-5-((imidazol-2-ylmethyl)amino)valerate 1-naphthalenemethylamide] | 78.1% | –
C[C@H](NC(=O)[C@H](CCCNC(=N)N)NC(=O)c1ccc(CNCc2ncc[nH]2)cc1)c1cccc2ccccc12 [Compound No. 95] | 100.0% | –
C[C@H](NC(=O)[C@H](CCCNC1CCCc2cccnc21)NC(=O)c1ccc(CNCc2ccccn2)nc1)c1cccc2ccccc12 (stereo partly drawn) [Compound No. 83, (2S)-2-(2-(N-2-picolylaminomethyl)pyridin-5-ylcarbonyl)amino-5-(5,6,7,8-tetrahydroquinolin-8-yl)amino valerate(1′S)-1′-(1-naphthyl)ethylamide] | 78.0% | –
c1cc(CN2CCCNCCNCCCNCC2)ccc1CN1CCCNCCNCCCNCC1 [AMD3100, reference compound] | – | 10%
O=C(N[C@@H](CCCNC1CCCc2cccnc21)C(=O)NCc1cccc2ccccc12)c1ccc(CNCc2ncc[nH]2)s1 (stereo partly drawn) [Compound No. 16] | 75.3% | –
NC(N)=NCCC[C@H](NC(=O)c1ccc(CNCc2ccccn2)cc1)C(=O)NCc1cccc2ccccc12 [Compound No. 43, N^α-(4-(N-2-picolylaminomethyl)benzoyl)-L-arginine 1-naphthalenemethylamide] | 43.6% | –
O=C(N[C@@H](CCNCc1ccccn1)C(=O)NCc1cccc2ccccc12)c1ccc(CNCc2ccccn2)cc1 [Compound No. 61, (S)-2-(4-(N-2-picolylamino)methylbenzoylamino)-4-(N-2-picolylamino)lactate 1-naphthalenemethylamide] | 32.9% | –
C[C@@H](NC(=O)[C@H](CCCNC1CCCc2cccnc21)NC(=O)c1ccc(CNCc2ncc[nH]2)c2ccccc12)c1cccc2ccccc12 (stereo partly drawn) [Compound No. 59] | 86.0% | –
N=C(N)NCCC[C@H](NC(=O)c1ccc(CNCc2ncc[nH]2)c2ccccc12)C(=O)NCc1cccc2ccccc12 [Compound No. 45, N^α-(4-((N-imidazol-2-ylmethyl)aminomethyl)naphthoyl)-L-arginine 1-naphthalenemethylamide] | 95.8% | –
C[C@H](NC(=O)[C@H](CCCNCc1ccccn1)NC(=O)c1ccc(CNCc2ncc[nH]2)c2ccccc12)c1cccc2ccccc12 [Compound No. 56] | 69.9% | –

Reference: US20040157818A1, “Cxcr4-antagonistic drugs composed of nitrogen-containing compound” (priority 2001, published 2004)
